Results: patent US12435061B2 (priority 2020, dated 2025)
Where a name gives a salt, the structure may show the parent alone. Read-outs that look alike come from different tables or passages of the source.

Target: hTRPV3 (Homo sapiens (Human), UniProt Q8NET8)
Experiment: Whole-cell patch clamp, hTRPV3 Phase 1 / Phase 2 currents
Format: cell-based
Method in brief: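 Whole-cell recordings on induced TRPV3 cells replated on coverslips, held at −40 mV with 400 ms ramps from −120 to +100 mV every 5 s; currents read at −80 and +80 mV. Ringer's external solution; current activated by heating to ≥28 °C or 20 μM 2-APB.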

[1] = Phase 1 current, human TRPV3, read-out: hTRPV3 (nM) Phase 1
[2] = Phase 1 current, inward, whole-cell patch clamp, read-out: hTRPV3 Patch P1 Inwd
[3] = Phase 1 current, read-out: hTRPV3 (nM) (Phase 1)
[4] = Phase 2 current, inward, whole-cell patch clamp, read-out: hTRPV3 Patch P2 Inwd
[5] = Phase 2 current, read-out: hTRPV3 (nM) (Phase 2)

Sequence of hTRPV3 (Q8NET8 whole entry): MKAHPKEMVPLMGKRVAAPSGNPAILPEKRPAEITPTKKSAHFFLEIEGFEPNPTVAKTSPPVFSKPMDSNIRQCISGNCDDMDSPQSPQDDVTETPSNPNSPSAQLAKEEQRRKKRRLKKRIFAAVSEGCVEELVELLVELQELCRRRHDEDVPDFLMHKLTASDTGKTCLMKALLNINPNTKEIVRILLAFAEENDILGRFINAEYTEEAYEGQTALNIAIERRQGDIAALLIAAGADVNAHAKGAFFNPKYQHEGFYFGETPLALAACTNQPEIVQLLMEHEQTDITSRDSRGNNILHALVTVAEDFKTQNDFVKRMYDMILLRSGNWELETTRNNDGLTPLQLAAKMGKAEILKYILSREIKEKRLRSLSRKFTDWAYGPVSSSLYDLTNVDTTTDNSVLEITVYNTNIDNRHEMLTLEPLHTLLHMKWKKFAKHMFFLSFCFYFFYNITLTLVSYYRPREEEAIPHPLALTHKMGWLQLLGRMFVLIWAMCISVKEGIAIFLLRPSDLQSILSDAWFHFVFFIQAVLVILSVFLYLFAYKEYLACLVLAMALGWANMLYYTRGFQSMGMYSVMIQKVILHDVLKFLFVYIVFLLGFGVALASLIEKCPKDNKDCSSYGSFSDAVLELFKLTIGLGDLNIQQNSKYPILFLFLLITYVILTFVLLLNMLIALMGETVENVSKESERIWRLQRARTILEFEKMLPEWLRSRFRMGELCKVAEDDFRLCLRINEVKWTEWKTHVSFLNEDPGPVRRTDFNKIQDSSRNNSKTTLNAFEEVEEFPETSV

Compound | IC50 [1] | IC50 [2] | IC50 [3] | further results
CC(C)c1ccccc1Oc1ccc(C2CCN(C(=O)c3ccc(C(F)(F)F)cn3)C2)c(CO)c1 (centres unmarked) [Compound 2-21, (3-(2-(hydroxymethyl)-4-(2-isopropylphenoxy)phenyl)pyrrolidin-1-yl)(5-(trifluoromethyl)pyridin-2-yl)methanone] | 97.1 nM | 10 to 100 nM | – | –
O=C(c1ccc(C2CCN(C(=O)c3ncccc3Cl)C2)c(CO)c1)c1ccccc1Cl (centres unmarked) [Compound 2-14, (3-(4-(2-chlorobenzoyl)-2-(hydroxymethyl)phenyl)pyrrolidin-1-yl)(3-chloropyridin-2-yl)methanone] | > 3200 nM | > 1000 nM | – | –
CCc1ccccc1Oc1ccc(N2CC[C@H](Oc3ccccn3)C2)c(CCO)c1 [Compound 1-335] | – | 10 to 100 nM | 66.3 nM | –
Nc1cc(-c2ccccc2Cl)ccc1N1CC[C@@H](Oc2ccc(C(F)(F)F)cn2)C1 [Compound 1-116] | – | – | – | hTRPV3 (nM) (Phase 1) (Phase 1 current): Agonist/ Antagonist (Phase 1) Agonist/ Antagonist (Phase 2); hTRPV3 (nM) (Phase 2) (Phase 2 current): Agonist/ Antagonist (Phase 1) Agonist/ Antagonist (Phase 2)
COCc1ccccc1Oc1ccc(N2CC[C@H](Oc3ccc(C)cn3)C2)c(CCO)c1 [Compound 1-349, (S)-2-(5-(2-(methoxymethyl)phenoxy)-2-(3-(5-methylpyridin-2-yloxy)pyrrolidin-1-yl)phenyl)ethanol] | – | 100 to 1000 nM | 908 nM | –
CNC(=O)c1ccccc1N1CC[C@H](Oc2ccc(C(F)(F)F)cn2)C1 [Compound 1-39, (S)—N-methyl-2-(3-(5-(trifluoromethyl)pyridin-2-yloxy)pyrrolidin-1-yl)benzamide] | – | > 1000 nM | – | –
Cc1cccc(C(=O)c2ccc(C3CCN(C(=O)c4ncccc4Cl)C3)c(CO)c2)c1 (centres unmarked) [Compound 2-9, (4-(1-(3-chloropicolinoyl)pyrrolidin-3-yl)-3-(hydroxymethyl)phenyl)(m-tolyl)methanone] | > 3200 nM | > 1000 nM | – | –
CC(O)c1cc(F)ccc1Oc1ccc(N2CC[C@H](Oc3ccccn3)C2)c(CO)c1 (some centres unmarked) [Compound 1-326] | – | > 1000 nM | 1470 nM | IC50 [4]: 100 to 1000 nM; IC50 [5]: 575 nM
O=C(c1ccccc1N1CC[C@@H](Oc2ccc(C(F)(F)F)cn2)C1)N(Cc1ccccc1)Cc1ccccc1 [Compound 1-53, (R)—N,N-dibenzyl-2-(3-(5-(trifluoromethyl)pyridin-2-yloxy)pyrrolidin-1-yl)benzamide] | – | > 1000 nM | – | –
OCc1cc(Oc2ccc(Cl)cc2)ccc1N1C[C@@H](O)[C@H](Oc2ccc(C(F)(F)F)cn2)C1 [Compound 1-285] | – | > 1000 nM | > 3200 nM | IC50 [4]: > 1000 nM; IC50 [5]: ~4900 nM
NCc1ccccc1N1CC[C@H](Oc2ccc(C(F)(F)F)cn2)C1 [Compound 1-13, (S)-(2-(3-(5-(trifluoromethyl)pyridin-2-yloxy)pyrrolidin-1-yl)phenyl)methanamine HCl salt] | – | > 1000 nM | – | IC50 [4]: > 1000 nM
CC(C)c1ccccc1Oc1ccc(C2CCN(C(=O)c3ncccc3Cl)C2)c(C(=O)O)c1 (centres unmarked) [Compound 2-25, 2-(1-(3-chloropicolinoyl)pyrrolidin-3-yl)-5-(2-isopropylphenoxy)benzoic acid] | > 3200 nM | > 1000 nM | – | –
CC(=O)NCc1cc(-c2ccccc2Cl)ccc1N1CC[C@H](Oc2ccc(C(F)(F)F)cn2)C1 [Compound 1-127, (S)—N-((2′-chloro-4-(3-(5-(trifluoromethyl)pyridin-2-yloxy)pyrrolidin-1-yl)biphenyl-3-yl)methyl)acetamide] | – | – | – | IC50 [4]: > 1000 nM; IC50 [5]: 1140 nM
CC(C)c1ccccc1Oc1ccc(C2CCN(C(=O)c3ncccc3F)C2)c(C(N)=O)c1 (centres unmarked) [Compound 2-46, 2-(1-(3-fluoropicolinoyl)pyrrolidin-3-yl)-5-(2-isopropylphenoxy)benzamide] | ~2250 nM | > 1000 nM | – | –
COc1ccccc1Oc1ccc(N2CC[C@H](Oc3ncccc3F)C2)c(CO)c1 [Compound 1-346, (S)-(2-(3-(3-fluoropyridin-2-yloxy)pyrrolidin-1-yl)-5-(2-methoxyphenoxy)phenyl)methanol] | – | 100 to 1000 nM | 612 nM | –
